According to US12414955B2 (priority 2020, dated 2025):
Where “and” joins values, the source holds several entries; their conditions need not be identical. Equal entries are not always repeated.

How the values were obtained:
SARS CoV-2 = SARS CoV-2 cytopathic effect (CPE) assay in Vero E6 host cells; type: cell-based, USA_WA1/2020 SARS CoV-2
SARS CoV-1 = assay: organism not typed; type: cell-based, Toronto 2 SARS CoV-1; conditions: for concentrations at which synergy was realized / average plate ZIP synergy score / maximum ZIP synergy score: SARS CoV-1 CPE assay
in vitro [1] = conditions: African green monkey
in vitro [2] = conditions: African green monkey; remark: listed apart in the source
SARS-CoV-2 = assay: microbe, parasite or virus in culture; type: cell-based; conditions: Severe acute respiratory syndrome coronavirus 2, A549, 48 h; read-out: IC50 for inhibition of SARS CoV-2 mediated cell killing
[3] = combination of Compound 1 and remdesivir
[4] = Compound 1 in combination with hydroxychloroquine (HCQ)
[5] = Compound 1 in combination with remdesivir
[6] = combination of Compound 1 and hydroxychloroquine (HCQ)

SMILES | CC50 (in vitro [1]) [µM] | CC50 (in vitro [2]) [µM] | IC50 (SARS-CoV-2) [µM] | other results
CCC(CC)COC(=O)[C@H](C)N[P@](=O)(OC[C@H]1O[C@@](C#N)(c2ccc3c(N)ncnn23)[C@H](O)[C@@H]1O)Oc1ccccc1 [Remdesivir, remdesivir, reference compound] | – | – | – | concentrations at which synergy was realized (SARS CoV-2): above 0.5 μM; concentrations at which synergy was realized (SARS CoV-1; [3]): > 1.9 µM
C[C@@H]1COCCN1c1cc(N2CCOC[C@H]2C(F)(F)F)[nH]c(=O)c1 [Compound 4] | > 30 | > 30 | 0.52 | –
C[C@@H]1COCCN1c1cc(N2CCCC[C@@H]2C(F)(F)F)[nH]c(=O)c1 [Compound 1] | > 30 | > 30 | 0.108 | average plate ZIP synergy score (SARS CoV-2): 5.523 and 8.345; maximum ZIP synergy score (SARS CoV-2): 32.8 and 40.8; average plate ZIP synergy score (SARS CoV-1; [4]): 13.413; maximum ZIP synergy score (SARS CoV-1; [4]): 37.77; average plate ZIP synergy score (SARS CoV-1; [5]): 8.304; maximum ZIP synergy score (SARS CoV-1; [5]): 33.66; IC50 (SARS CoV-1; Vero C1008, 72 h, read-out: IC50 for inhibition of SARS CoV-1 mediated cell killing): 0.65 µM; concentrations at which synergy was realized (SARS CoV-1; [6]): ≤ 1.9 µM; concentrations at which synergy was realized (SARS CoV-1; [3]): ≤ 1.9 µM
C[C@@H]1COCCN1c1cc(N2CCCC[C@@H]2c2ccccc2)[nH]c(=O)c1 [Compound 2] | > 30 | > 30 | 2.03 | –
C[C@@H]1COCCN1c1cc(N2CCC[C@@H]2C(F)(F)F)[nH]c(=O)c1 [Compound 3] | > 30 | > 30 | > 30 | –
CCN(CCO)CCCC(C)Nc1ccnc2cc(Cl)ccc12 (stereo not drawn) [HCQ, hydroxychloroquine, reference compound] | – | – | – | concentrations at which synergy was realized (SARS CoV-1; [6]): > 0.1 µM
C[C@@H]1COCCN1c1cc(N2CCOCC23CCC3)[nH]c(=O)c1 [Compound 5] | > 10 | > 10 | 7.73 | –
